Experimental data: US7238793B2 (Duke University, priority 2001, dated 2007)

System: 5X-Gal4-tata-Luc or TK-Gal4-Luc
Experiment: Autonomous repressor activity, Gal4 DBD fusions on Gal4-responsive reporter genes in HepG2 cells
Assay type: cell-based
Settings: fused to Gal4 DBD, both reporter genes

NCoR: known transcriptional repressor, nuclear receptor co-repressor
effect on transcriptional activity of Gal4-responsive reporter genes: inhibit
